This experiment addresses T1, Human α-thrombin (Homo sapiens, UniProt P00734).
T1 construct: Human α-thrombin, was obtained from Enzyme Research Laboratories; purchased Enzyme Research Laboratories (South Bend, Ind.)
Briefly: In vitro inhibition of purified thrombin (Ki determination, p-nitroanilide substrate hydrolysis). The conditions noted are these: purified human α-thrombin 0.5 nM, substrate N-succinyl-Ala-Ala-Pro-Arg-p-nitroanilide, 50 mM HEPES, 200 mM NaCl, pH 7.5, 37° C.; read-out: thrombin inhibitory activity. In kind it is biochemical. The source says: Reagents: All buffer salts were obtained from Sigma Chemical Company (St. Louis, Mo.), and were of the highest purity available. The enzyme substrates, N-benzoyl-Phe-Val-Arg-p-nitroanilide (Sigma B7632), N-benzoyl-Ile-Glu-Gly-Arg-p-nitroanilide hydrochloride (Sigma B2291), N-p-Tosyl-Gly-Pro-Lys-p-nitroanilide (Sigma T6140), N-succinyl-Ala-Ala-Pro-Phe-p-nitroanilide (Sigma S7388) and N-CBZ-Val-Gly-Arg-p-nitroanilide (Sigma C7271) were obtained from Sigma. N-succinyl-Ala-Ala-Pro-Arg-p-nitroanilide (BACHEM L-1720) and N-succinyl-Ala-Ala-Pro-Val-p-nitroanilide (BACHEM L-1770) were obtained from BACHEM (King of Prussia, Pa.). […]
Ki Determinations: All assays are based on the ability of the test compound to inhibit the enzyme catalyzed hydrolysis of a peptide p-nitroanilide substrate. […] In general, substrate concentrations are lower than the experimentally determined value for Km. […]
In a typical Ki determination, into each well of a 96 well plate is pipetted […] of substrate solution, […] of test compound solution, and the plate allowed to thermally equilibrate at 37° C. in a Molecular Devices plate reader for>15 minutes. Reactions were initiated by the addition of a […] aliquot of enzyme and the absorbance increase at 405 nm is recorded for 15 minutes. […] The data are fit to a linear regression, and the value of the slope of the line calculated. […]

Structures are written as SMILES. Structures can show the parent of a compound that is named as a salt.

As to `Cc1cccc(S(=O)(=O)Nc2ccc(C)n(CC(=O)NCC3CNC(=N)NO3)c2=O)c1` (centres unmarked) [Example 1, N-[(3-Imino(1,2,4-oxadiazaperhydroin-6-yl))methyl]-2-(6methyl-3-{[(3methylphenyl)sulfonyl]amino}-2-oxohydropyridyl)acetamide trifluoroacetate], the Ki turned out to be 0.026 µM. `Cc1cccc(S(=O)(=O)Nc2ccc(C)n(CC(=O)NC3CCN(C(=N)N)OC3)c2=O)c1` (centres unmarked) [Example 2, 5-[2-(6-Methyl-3-{[(3-methylphenyl)sulfonyl]amino}-2-oxohydropyridyl)acetylamino]-1,2-oxazaperhydroine-2-carboxamidine trifluoroacetate]: the Ki amounted to 0.00038 µM.

Source of the values: US6326492A, “Heterocyclic protease inhibitors” (3-Dimensional Pharmaceuticals, Inc., priority 2000, dated 2001).
